Laboratory results published in patent US8871753B2, “Macrocyclic compounds and their use as kinase inhibitors” (Incyte Corporation, priority 2008, dated 2014).
pIC50: −log10 of the molar value. Counter-ions that a name gives are not always drawn. Like-named read-outs stand apart in the source and are kept apart here.

Legend:
Format in all cases: biochemical
[1] = target: T1, human JAK1 (a.a. 837-1142) (Homo sapiens, UniProt P23458); test: In vitro JAK kinase assay (HTRF, phosphorylation of a biotinylated peptide), JAK1; conditions: read-out: JAK1 IC50
T1 construct: human JAK1 (a.a. 837-1142); His tag (N); made in house; host or cells: insect cells (baculovirus)
Procedure, shortened: (§1)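 Kinase reactions ran at room temperature for 1 h with ATP matched per isoform (JAK1 90 μM, JAK2 30 μM, JAK3 3 μM). After an EDTA stop, the phosphorylated biotin-peptide was read by HTRF using Eu-Py20 and SA-APC after 40 min binding.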

[2] = target: T2, human JAK2 (a.a. 828-1132) (Homo sapiens, UniProt O60674); test: In vitro JAK kinase assay (HTRF, phosphorylation of a biotinylated peptide), JAK2
T2 construct: JAK2 (a.a. 828-1132); His tag (N); made in house; host or cells: insect cells (baculovirus)
Procedure, shortened: as §1

[3] = target: T3, human JAK3 (a.a. 781-1124) (Homo sapiens, UniProt P52333); test: In vitro JAK kinase assay (HTRF, phosphorylation of a biotinylated peptide), JAK3
T3 construct: JAK3 (a.a. 781-1124); His tag (N); made in house; host or cells: insect cells (baculovirus)
Procedure, shortened: as §1

TYK2 = TYK2 (Homo sapiens, UniProt P29597); test: TYK2 kinase inhibition (Table A1)
[4] = target: T4, Recombinant Human Anaplastic Lymphoma Kinase (Homo sapiens, UniProt Q9UM73); test: ALK HTRF kinase assay
T4 construct: purchased Invitrogen, Carlsbad, Calif
Procedure, shortened: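 Recombinant human ALK phosphorylated a biotinylated synthetic peptide. Phosphotyrosine was detected by TR-FRET between a Eu-labelled anti-phosphotyrosine antibody and streptavidin-allophycocyanin. IC50 values came from fitting signal against inhibitor concentration to a four-parameter logistic equation with variable Hill slope.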

[5] = compound at a concentration of 500 nM or 1 mM (not specified), cells shown as percentage
[6] = Table B1, cells without percent sign
[7] = method AA1 (90 μM ATP) or AA2 (1000 μM ATP), not stated per value
[8] = method AA1 (30 μM ATP) or AA2 (1000 μM ATP), not stated per value
[9] = method AA1 (3 μM ATP) or AA2 (1000 μM ATP), not stated per value
[10] = compound at 500 nM or 1 mM, 90 μM ATP
[11] = percentage inhibition of the example compound at a concentration of 500 nM or 1 mM (not specified which)

T1 sequence (P23458 849-1154): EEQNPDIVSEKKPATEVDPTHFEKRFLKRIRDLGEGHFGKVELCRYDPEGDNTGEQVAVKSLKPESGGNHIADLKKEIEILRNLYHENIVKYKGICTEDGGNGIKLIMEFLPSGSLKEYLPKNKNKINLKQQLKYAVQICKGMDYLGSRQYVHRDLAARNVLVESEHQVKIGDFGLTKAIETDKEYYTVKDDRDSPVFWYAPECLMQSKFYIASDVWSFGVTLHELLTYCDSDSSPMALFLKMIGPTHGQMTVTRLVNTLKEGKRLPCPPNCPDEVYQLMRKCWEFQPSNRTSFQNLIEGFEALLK
Chain of TYK2 (P29597 whole entry): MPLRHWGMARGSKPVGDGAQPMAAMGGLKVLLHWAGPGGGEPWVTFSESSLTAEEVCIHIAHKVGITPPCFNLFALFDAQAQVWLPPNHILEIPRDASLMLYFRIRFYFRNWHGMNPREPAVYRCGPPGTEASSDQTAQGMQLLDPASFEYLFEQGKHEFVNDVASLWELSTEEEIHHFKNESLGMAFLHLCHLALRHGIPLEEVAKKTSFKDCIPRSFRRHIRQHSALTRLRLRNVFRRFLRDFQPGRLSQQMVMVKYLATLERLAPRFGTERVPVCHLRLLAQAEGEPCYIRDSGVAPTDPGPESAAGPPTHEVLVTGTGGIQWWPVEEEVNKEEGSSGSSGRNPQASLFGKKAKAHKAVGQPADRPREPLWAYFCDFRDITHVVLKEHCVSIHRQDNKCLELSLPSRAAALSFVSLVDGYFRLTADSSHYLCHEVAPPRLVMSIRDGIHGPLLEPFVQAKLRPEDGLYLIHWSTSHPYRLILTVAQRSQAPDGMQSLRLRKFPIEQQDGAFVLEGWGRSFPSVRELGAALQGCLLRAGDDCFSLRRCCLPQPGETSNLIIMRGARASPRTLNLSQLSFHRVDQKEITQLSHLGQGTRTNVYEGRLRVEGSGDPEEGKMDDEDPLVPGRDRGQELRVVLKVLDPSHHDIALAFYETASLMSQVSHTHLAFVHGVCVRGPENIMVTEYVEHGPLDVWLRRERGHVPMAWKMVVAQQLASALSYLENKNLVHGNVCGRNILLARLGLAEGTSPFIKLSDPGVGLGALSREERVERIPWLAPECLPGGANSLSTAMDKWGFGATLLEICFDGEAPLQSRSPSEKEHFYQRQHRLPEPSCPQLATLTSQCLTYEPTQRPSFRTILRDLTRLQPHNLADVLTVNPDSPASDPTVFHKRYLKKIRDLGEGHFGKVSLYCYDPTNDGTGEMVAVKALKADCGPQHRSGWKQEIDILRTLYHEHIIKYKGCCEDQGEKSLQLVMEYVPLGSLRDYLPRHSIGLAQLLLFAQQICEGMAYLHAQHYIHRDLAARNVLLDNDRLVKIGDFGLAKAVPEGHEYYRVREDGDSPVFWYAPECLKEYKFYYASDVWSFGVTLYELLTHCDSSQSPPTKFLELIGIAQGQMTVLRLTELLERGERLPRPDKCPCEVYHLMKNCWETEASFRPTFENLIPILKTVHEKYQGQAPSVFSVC
T2 sequence (O60674 828-1132): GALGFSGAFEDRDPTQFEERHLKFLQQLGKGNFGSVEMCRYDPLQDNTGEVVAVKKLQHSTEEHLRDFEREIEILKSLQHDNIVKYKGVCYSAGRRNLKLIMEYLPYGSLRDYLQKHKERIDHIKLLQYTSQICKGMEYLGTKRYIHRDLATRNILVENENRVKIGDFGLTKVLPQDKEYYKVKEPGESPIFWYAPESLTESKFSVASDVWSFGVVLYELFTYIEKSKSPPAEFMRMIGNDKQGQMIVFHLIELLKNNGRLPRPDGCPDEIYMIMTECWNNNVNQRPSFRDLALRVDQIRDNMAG
T4 sequence (Q9UM73 19-1620): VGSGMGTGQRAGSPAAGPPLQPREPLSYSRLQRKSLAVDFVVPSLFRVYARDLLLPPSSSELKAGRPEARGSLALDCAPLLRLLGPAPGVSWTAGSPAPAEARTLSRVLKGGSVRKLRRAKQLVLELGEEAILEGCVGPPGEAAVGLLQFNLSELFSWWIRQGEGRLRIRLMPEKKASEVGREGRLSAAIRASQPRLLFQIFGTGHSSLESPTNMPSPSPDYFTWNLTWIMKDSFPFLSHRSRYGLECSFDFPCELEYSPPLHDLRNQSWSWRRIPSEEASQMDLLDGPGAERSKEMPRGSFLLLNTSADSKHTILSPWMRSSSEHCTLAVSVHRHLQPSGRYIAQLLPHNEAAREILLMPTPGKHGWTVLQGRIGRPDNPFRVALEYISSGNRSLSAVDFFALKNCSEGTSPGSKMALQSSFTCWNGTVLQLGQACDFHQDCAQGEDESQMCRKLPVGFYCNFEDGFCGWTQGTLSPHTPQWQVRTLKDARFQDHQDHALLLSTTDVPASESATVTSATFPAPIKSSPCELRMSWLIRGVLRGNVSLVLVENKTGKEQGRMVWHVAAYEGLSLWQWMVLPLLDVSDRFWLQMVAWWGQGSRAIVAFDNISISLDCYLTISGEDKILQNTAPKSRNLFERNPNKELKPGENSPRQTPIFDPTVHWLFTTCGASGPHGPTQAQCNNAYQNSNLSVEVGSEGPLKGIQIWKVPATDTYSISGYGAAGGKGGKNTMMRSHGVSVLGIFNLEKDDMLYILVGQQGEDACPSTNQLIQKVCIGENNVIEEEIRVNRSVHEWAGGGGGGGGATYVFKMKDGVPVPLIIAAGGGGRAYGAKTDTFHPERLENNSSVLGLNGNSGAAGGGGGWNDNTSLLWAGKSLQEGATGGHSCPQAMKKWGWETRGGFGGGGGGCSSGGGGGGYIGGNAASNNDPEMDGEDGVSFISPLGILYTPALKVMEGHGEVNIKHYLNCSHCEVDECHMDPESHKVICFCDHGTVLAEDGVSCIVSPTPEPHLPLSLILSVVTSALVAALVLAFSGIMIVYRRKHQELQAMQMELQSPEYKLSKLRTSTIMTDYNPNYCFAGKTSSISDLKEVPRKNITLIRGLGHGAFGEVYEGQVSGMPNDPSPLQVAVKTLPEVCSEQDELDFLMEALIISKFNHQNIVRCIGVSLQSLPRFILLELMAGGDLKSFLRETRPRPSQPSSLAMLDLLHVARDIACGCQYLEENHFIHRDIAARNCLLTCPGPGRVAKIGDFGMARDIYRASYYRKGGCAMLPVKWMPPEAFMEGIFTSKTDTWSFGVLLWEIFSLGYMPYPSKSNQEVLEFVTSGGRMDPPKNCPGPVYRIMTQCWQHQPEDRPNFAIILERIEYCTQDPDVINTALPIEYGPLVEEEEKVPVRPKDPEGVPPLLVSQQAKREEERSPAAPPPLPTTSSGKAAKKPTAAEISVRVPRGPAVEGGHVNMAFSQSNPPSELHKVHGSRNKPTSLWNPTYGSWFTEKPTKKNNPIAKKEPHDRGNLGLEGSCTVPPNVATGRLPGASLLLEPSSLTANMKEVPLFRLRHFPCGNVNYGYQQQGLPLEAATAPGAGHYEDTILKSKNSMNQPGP
T3 sequence (P52333 781-1124): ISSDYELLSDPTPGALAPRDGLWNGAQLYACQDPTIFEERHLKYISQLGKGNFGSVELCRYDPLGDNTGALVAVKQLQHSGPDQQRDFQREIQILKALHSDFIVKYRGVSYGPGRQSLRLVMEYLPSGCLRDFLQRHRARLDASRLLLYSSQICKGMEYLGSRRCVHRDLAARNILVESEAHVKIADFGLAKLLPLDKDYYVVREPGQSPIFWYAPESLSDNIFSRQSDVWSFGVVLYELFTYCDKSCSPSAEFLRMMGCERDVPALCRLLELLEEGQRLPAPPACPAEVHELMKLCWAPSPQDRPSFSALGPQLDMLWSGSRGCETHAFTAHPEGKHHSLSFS

Row | Structure (SMILES) | pIC50 ([1]; Table B1) | pIC50 ([2]; Table B1) | pIC50 ([3]; Table B1) | pIC50 (TYK2; Table B1) | pIC50 [4, 6] | also measured
1 | O=C(Nc1ccc2cc1CCc1cccc(c1)Nc1ncc(Cl)c(n1)N2)NC12CC3CC(CC(C3)C1)C2 [Example B127, N-1-Adamantyl-N′-[6-chloro-2,4,8,22-tetraazatetracyclo[14.3.1.1(3,7).1(9,13)]docosa-1(20),3(22),4,6,9(21),10,12,16,18-nonaen-12-yl]urea trifluoroacetate] | 7.60 | 7.57 | 6.74 | 7.05 | – | ALK % of inhibition at a concentration of 500 nM or 1 mM [4, 5]: 6.1%
2 | O=C1Nc2cccc(c2)Nc2nc(ncc2Cl)Nc2cccc1c2 [Example C2, 6-Chloro-2,4,8,14,22-pentaazatetracyclo[14.3.1.1(3,7).1(9,13)]docosa-1(20),3(22),4,6,9(21),10,12,16,18-nonaen-15-one hydrochloride] | – | – | – | – | – | pIC50 [1]: < 6.00; pIC50 [2]: < 6.00; pIC50 [3]: < 6.00; pIC50 (TYK2): < 6.00; pIC50 [4]: < 6.00
3 | COc1cc2cc(c1)Nc1nc(ncc1Cl)Nc1cccc(c1)CC2 [Example A21, 6-Chloro-11-methoxy-2,4,8,22-tetraazatetracyclo[14.3.1.1(3,7).1(9,13)]docosa-1(20),3(22),4,6,9(21),10,12,16,18-nonaene trifluoroacetate] | – | – | – | – | – | pIC50 [1, 7]: 7.24; pIC50 [2, 8]: 8.21; pIC50 [3, 9]: 7.59; pIC50 (TYK2): 7.01; ALK % of inhibition at a concentration of 500 nM or 1 mM [4, 10]: 65%
4 | Clc1cnc2nc1Nc1ccc(CN[C@@H]3CCNC3)c(c1)CCc1cccc(c1)N2 [Example B222, (3R)—N-{[6-Chloro-2,4,8,22-tetraazatetracyclo[14.3.1.1(3,7).1(9,13)]docosa-1(20),3(22),4,6,9(21),10,12,16,18-nonaen-12-yl]methyl}pyrrolidin-3-amine tris(trifluoroacetate)] | 7.70 | 7.85 | 7.40 | 7.27 | – | ALK % of inhibition at a concentration of 500 nM or 1 mM [4, 5]: 34%
5 | Clc1cnc2nc1Nc1cccc(c1)CSCCc1cccc(c1)N2 [Example D32, 6-Chloro-15-thia-2,4,8,24-tetraazatetracyclo[16.3.1.1(3,7).1(9,13)]tetracosa-1(22),3(24),4,6,9(23),10,12,18,20-nonaene trifluoroacetate] | – | – | – | – | – | pIC50 ([1]; Table D1): 7.39; pIC50 ([2]; Table D1): 7.37; pIC50 ([3]; Table D1): 7.08; pIC50 (TYK2; Table D1): 7.35; pIC50 ([4]; Table D1, 90 μM ATP): < 6.00
6 | CSc1ccccc1NC(=O)N1CCC(C(=O)Nc2ccc3cc2CCc2cccc(c2)Nc2ncc(Cl)c(n2)N3)CC1 [Example A39, N(4)-[6-Chloro-2,4,8,22-tetraazatetracyclo[14.3.1.1(3,7).1(9,13)]docosa-1(20),3(22),4,6,9(21),10,12,16,18-nonaen-12-yl]-N(1)-[2-(methylthio)phenyl]piperidine-1,4-dicarboxamide trifluoroacetate] | – | – | – | – | – | pIC50 [1, 7]: 7.72; pIC50 [2, 8]: 7.44; pIC50 [3, 9]: 7.18; pIC50 (TYK2): 7.11; ALK % of inhibition at a concentration of 500 nM or 1 mM [4, 10]: 39%
7 | CN(C(=O)Nc1ccc2cc1CCc1cncc(c1)Nc1ncc(Cl)c(n1)N2)[C@H]1CCN(C(=O)c2ccccc2)C1 [Example B291, N-[(3S)-1-Benzoylpyrrolidin-3-yl]-N′-[6-chloro-2,4,8,18,22-pentaazatetracyclo[14.3.1.1(3,7).1(9,13)]docosa-1(20),3(22),4,6,9(21),10,12,16,18-nonaen-12-yl]-N-methylurea bis(trifluoroacetate)] | 7.55 | 7.00 | < 6.70 | 6.70 | – | ALK % of inhibition at a concentration of 500 nM or 1 mM [4, 5]: 58%
8 | Cc1cc(C(=O)N2CCN(CC(=O)Nc3ccc4cc3CCc3cncc(c3)Nc3ncc(Cl)c(n3)N4)CC2)no1 [Example A119, N-[6-Chloro-2,4,8,18,22-pentaazatetracyclo[14.3.1.1(3,7).1(9,13)]docosa-1(20),3(22),4,6,9(21),10,12,16,18-nonaen-12-yl]-2-{4-[(5-methylisoxazol-3-yl)carbonyl]piperazin-1-yl}acetamide tris(trifluoroacetate)] | – | – | – | – | – | pIC50 [1, 7]: 8.44; pIC50 [2, 8]: 7.80; pIC50 [3, 9]: 6.76; pIC50 (TYK2): 8.07; ALK % of inhibition at a concentration of 500 nM or 1 mM [4, 10]: 15%

Continued by rising pIC50 ([1]; Table B1), values first:

Row | pIC50 ([1]; Table B1) | pIC50 ([2]; Table B1) | pIC50 ([3]; Table B1) | pIC50 (TYK2; Table B1) | pIC50 [4, 6] | Structure (SMILES) | also measured
9 | 7.96 | 8.55 | 6.98 | 7.89 | < 6.00 | CC(C)S(=O)(=O)Nc1ccc2cc1CCc1cccc(c1)Nc1ncc(Cl)c(n1)N2 [Example B143, N-[6-Chloro-2,4,8,22-tetraazatetracyclo[14.3.1.1(3,7).1(9,13)]docosa-1(20), 3(22),4,6,9(21),10,12,16,18-nonaen-12-yl]propane-2-sulfonamide trifluoroacetate] | –
10 | 8.17 | 7.82 | 9.00 | 8.92 | – | Clc1cnc2nc1Nc1ccc(Nc3nc4cccnc4o3)c(c1)CCc1cccc(c1)N2 [Example B333, 6-Chloro-N-[1,3]oxazolo[5,4-b]pyridin-2-yl-2,4,8,22-tetraazatetracyclo[14.3.1.1(3,7).1(9,13)]docosa-1(20),3(22),4,6,9(21),10,12,16,18-nonaen-12-amine tris(trifluoroacetate)] | ALK % of inhibition at a concentration of 500 nM or 1 mM [4, 11]: 55%
11 | 8.49 | 8.72 | 7.82 | 8.22 | 6.66 | COc1ccc(C(=O)Nc2ccc3cc2CCc2cccc(c2)Nc2ncc(Cl)c(n2)N3)cc1 [Example B67, N-[6-Chloro-2,4,8,22-tetraazatetracyclo[14.3.1.1(3,7).1(9,13)]docosa-1(20), 3(22),4,6,9(21),10,12,16,18-nonaen-12-yl]-4-methoxybenzamide trifluoroacetate] | –
12 | 8.60 | 8.82 | 7.43 | 8.18 | 5.74 | O=S(=O)(Cc1ccccc1)Nc1ccc2cc1CCc1cccc(c1)Nc1ncc(Cl)c(n1)N2 [Example B147, N-[6-Chloro-2,4,8,22-tetraazatetracyclo[14.3.1.1(3,7).1(9,13)]docosa-1(20), 3(22),4,6,9(21),10,12,16,18-nonaen-12-yl]-1-phenylmethanesulfonamide trifluoroacetate] | –
13 | 8.70 | 8.80 | 8.19 | 8.26 | – | CCS(=O)(=O)NCCNC(=O)Nc1ccc2cc1CCc1cccc(c1)Nc1ncc(Cl)c(n1)N2 [Example B325, N-{2-[({[6-Chloro-2,4,8,22-tetraazatetracyclo[14.3.1.1(3,7).1(9,13)]docosa-1(20),3(22),4,6,9(21),10,12,16,18-nonaen-12-yl]amino}carbonyl)amino]ethyl}ethanesulfonamide trifluoroacetate] | ALK % of inhibition at a concentration of 500 nM or 1 mM [4, 11]: 19%
14 | 9.00 | 7.54 | 6.61 | 7.48 | – | O=C(Nc1ccc2cc1CCc1cncc(c1)Nc1ncc(Cl)c(n1)N2)N[C@H]1CCN(C(=O)c2ccccc2)C1 [Example B227, N-[(3S)-1-benzoylpyrrolidin-3-yl]-N′-[6-chloro-2,4,8,18,22-pentaazatetracyclo[14.3.1.1(3,7).1(9,13)]docosa-1(20),3(22),4,6,9(21),10,12,16,18-nonaen-12-yl]urea bis(trifluoroacetate)] | ALK % of inhibition at a concentration of 500 nM or 1 mM [4, 5]: 25%
15 | 9.10 | 9.70 | 8.52 | 8.92 | 6.13 | CCS(=O)(=O)Nc1ccc2cc1CCc1cccc(c1)Nc1ncc(Cl)c(n1)N2 [Example B141, N-[6-Chloro-2,4,8,22-tetraazatetracyclo[14.3.1.1(3,7).1(9,13)]docosa-1(20), 3(22),4,6,9(21),10,12,16,18-nonaen-12-yl]ethanesulfonamide trifluoroacetate] | –
16 | 9.30 | 10.00 | 8.29 | 9.08 | 6.54 | O=S(=O)(Nc1ccc2cc1CCc1cccc(c1)Nc1ncc(Cl)c(n1)N2)c1ccc(Cl)cc1 [Example B139, 4-Chloro-N-[6-chloro-2,4,8,22-tetraazatetracyclo[14.3.1.1(3,7).1(9,13)]docosa-1(20),3(22),4,6,9(21),10,12,16,18-nonaen-12-yl]benzenesulfonamide trifluoroacetate] | –
17 | 9.41 | 8.89 | 8.01 | 8.38 | 6.14 | O=C(Nc1ccccc1Cl)Nc1ccc2cc1CCc1cccc(c1)Nc1ncc(Cl)c(n1)N2 [Example B84, N-(2-Chlorophenyl)-N′-[6-chloro-2,4,8,22-tetraazatetracyclo[14.3.1.1(3,7).1(9,13)]docosa-1(20),3(22),4,6,9(21),10,12,16,18-nonaen-12-yl]urea trifluoroacetate] | –
